Test results taken from ChEMBL document CHEMBL3352089 (J Med Chem, 2014).

Tests used:
[1] = Cytotoxicity against human HepG2 cells assessed as cell viability at 1 uM after 24 hrs by Cell-Titer Glo assay; assay type: cell-based; settings: read-out: Activity
[2] = Cytotoxicity against human HepG2 cells assessed as cell viability at 100 uM after 4 hrs by Cell-Titer Glo assay; assay type: cell-based; settings: read-out: Activity
[3] = target: T1, TGF-beta receptor type-1 (Homo sapiens) (UniProt P36897)
T1 sequence (whole entry): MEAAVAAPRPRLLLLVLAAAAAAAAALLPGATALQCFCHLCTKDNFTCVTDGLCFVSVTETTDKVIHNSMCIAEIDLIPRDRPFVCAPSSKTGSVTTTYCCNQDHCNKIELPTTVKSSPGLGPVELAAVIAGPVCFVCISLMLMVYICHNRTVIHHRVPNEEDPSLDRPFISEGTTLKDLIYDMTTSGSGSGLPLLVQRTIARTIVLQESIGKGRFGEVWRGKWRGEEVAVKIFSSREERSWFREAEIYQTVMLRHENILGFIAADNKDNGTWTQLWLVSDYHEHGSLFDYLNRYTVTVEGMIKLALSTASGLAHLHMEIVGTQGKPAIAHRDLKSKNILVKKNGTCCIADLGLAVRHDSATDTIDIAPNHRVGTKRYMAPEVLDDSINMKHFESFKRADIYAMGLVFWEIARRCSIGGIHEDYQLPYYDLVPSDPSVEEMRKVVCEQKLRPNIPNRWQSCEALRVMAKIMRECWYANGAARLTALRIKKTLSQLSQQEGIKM
Description: Inhibition of purified ALK5 kinase (unknown origin) by RT-PCR analysis

[4] = Cytotoxicity against human HepG2 cells assessed as cell viability at 10 uM after 24 hrs by Cell-Titer Glo assay; assay type: cell-based; settings: read-out: Activity
[5] = test system: T2, Activin receptor type-1 (Homo sapiens), Q04771 [Q207D]
T2 sequence (whole entry): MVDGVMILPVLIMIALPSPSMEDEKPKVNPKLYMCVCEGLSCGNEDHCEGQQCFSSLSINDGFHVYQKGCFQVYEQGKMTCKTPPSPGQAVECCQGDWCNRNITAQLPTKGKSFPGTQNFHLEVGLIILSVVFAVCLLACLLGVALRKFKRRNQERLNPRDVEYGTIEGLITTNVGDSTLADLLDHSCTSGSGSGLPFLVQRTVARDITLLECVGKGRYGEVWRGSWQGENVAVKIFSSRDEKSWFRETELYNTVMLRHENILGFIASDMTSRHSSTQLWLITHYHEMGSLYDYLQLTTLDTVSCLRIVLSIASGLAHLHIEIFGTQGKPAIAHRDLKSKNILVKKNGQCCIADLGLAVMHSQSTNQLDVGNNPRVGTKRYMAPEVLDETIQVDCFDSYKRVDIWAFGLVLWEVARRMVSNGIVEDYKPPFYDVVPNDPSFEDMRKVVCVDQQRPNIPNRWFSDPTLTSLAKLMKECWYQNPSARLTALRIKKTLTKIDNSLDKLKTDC

[6] = Cytotoxicity against human HepG2 cells assessed as cell viability at 1 uM after 4 hrs by Cell-Titer Glo assay; assay type: cell-based; settings: read-out: Activity
[7] = Cytotoxicity against human HepG2 cells assessed as cell viability at 100 uM after 24 hrs by Cell-Titer Glo assay; assay type: cell-based; settings: read-out: Activity
[8] = Cytotoxicity against human HepG2 cells assessed as cell viability at 10 uM after 4 hrs by Cell-Titer Glo assay; assay type: cell-based; settings: read-out: Activity

Compound	viability at 24 h, 1 µM [1]	viability at 4 h, 100 µM [2]	ΔTm [3]	viability at 24 h, 10 µM [4]	ΔTm [5]	viability at 4 h, 1 µM [6]	viability at 24 h, 100 µM [7]	viability at 4 h, 10 µM [8]
COc1cc(-c2cc(-c3ccc(N4CCNCC4)cc3)cnc2C)cc(OC)c1OC	> 75%	> 75%	9.7 °C	> 75%	13.7 °C	> 75%	> 75%	> 75%
COc1cc(-c2cc(-c3ccc(N4CCNCC4)cc3)cnc2N)cc(OC)c1OC	> 75%	> 75%	13.9 °C	> 75%	15.1 °C	> 75%	–	> 75%
COc1cc(-c2cncc(-c3ccc(N4CCNCC4)cc3)c2)cc(OC)c1OC	> 75%	–	10.4 °C	> 75%	14.1 °C	> 75%	–	> 75%
